The source of these data is ChEMBL document CHEMBL5252515, “Discovery of 6-Amino-2-{[(1S)-1-methylbutyl]oxy}-9-[5-(1-piperidinyl)pentyl]-7,9-dihydro-8H-purin-8-one (GSK2245035), a Highly Potent and Selective Intranasal Toll-Like Receptor 7 Agonist for the Treatment of Asthma” (J Med Chem, 2016).

Activity calls are given as the source filed them. No cut-off for these calls is given here.

The target of assay [1] is T1, Toll-like receptor 7 (Macaca fascicularis) (UniProt B3Y652).
T1 sequence (whole entry): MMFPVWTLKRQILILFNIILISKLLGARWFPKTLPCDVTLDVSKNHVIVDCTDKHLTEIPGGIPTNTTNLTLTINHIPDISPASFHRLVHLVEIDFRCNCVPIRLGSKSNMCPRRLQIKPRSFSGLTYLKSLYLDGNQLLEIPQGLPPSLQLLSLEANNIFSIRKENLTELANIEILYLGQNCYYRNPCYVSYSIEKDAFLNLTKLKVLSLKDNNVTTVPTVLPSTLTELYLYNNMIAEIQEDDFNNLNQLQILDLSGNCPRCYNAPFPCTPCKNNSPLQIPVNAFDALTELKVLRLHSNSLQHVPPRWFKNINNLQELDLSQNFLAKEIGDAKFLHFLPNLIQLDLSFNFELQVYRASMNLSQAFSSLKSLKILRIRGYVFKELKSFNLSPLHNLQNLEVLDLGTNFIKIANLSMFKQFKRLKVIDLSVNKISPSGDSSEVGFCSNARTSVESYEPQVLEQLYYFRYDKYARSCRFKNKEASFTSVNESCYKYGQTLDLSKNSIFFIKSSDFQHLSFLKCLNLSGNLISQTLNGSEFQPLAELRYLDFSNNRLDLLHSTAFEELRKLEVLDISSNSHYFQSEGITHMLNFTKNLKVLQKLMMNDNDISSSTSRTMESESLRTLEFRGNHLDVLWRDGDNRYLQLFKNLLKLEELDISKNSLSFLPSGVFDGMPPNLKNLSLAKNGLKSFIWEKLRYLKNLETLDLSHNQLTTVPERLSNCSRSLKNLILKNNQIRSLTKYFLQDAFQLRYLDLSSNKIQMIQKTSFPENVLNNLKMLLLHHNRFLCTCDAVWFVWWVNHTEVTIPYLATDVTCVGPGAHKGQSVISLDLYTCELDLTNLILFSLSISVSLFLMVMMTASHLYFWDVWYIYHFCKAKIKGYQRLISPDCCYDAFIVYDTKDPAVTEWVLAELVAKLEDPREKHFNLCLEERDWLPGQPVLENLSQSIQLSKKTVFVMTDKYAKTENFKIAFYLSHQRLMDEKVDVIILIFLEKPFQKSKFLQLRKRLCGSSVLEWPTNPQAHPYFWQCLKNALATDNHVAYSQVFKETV
As to the kind of experiment: In vivo target occupancy at TLR7 in cynomolgus monkey assessed as fold increase in IFIT2 mRNA expression in nasal scrape at 30 ng/kg administered intranasally incubated for 24 hrs by TaqMan analysis (reference value: 2.1). It counts as functional. (In qPCR the cycle at which signal appears reflects the starting amount.)

For assay [2], the target named is T2, Toll-like receptor 7 (Homo sapiens, UniProt Q9NYK1).
T2 sequence (Q9NYK1 whole entry): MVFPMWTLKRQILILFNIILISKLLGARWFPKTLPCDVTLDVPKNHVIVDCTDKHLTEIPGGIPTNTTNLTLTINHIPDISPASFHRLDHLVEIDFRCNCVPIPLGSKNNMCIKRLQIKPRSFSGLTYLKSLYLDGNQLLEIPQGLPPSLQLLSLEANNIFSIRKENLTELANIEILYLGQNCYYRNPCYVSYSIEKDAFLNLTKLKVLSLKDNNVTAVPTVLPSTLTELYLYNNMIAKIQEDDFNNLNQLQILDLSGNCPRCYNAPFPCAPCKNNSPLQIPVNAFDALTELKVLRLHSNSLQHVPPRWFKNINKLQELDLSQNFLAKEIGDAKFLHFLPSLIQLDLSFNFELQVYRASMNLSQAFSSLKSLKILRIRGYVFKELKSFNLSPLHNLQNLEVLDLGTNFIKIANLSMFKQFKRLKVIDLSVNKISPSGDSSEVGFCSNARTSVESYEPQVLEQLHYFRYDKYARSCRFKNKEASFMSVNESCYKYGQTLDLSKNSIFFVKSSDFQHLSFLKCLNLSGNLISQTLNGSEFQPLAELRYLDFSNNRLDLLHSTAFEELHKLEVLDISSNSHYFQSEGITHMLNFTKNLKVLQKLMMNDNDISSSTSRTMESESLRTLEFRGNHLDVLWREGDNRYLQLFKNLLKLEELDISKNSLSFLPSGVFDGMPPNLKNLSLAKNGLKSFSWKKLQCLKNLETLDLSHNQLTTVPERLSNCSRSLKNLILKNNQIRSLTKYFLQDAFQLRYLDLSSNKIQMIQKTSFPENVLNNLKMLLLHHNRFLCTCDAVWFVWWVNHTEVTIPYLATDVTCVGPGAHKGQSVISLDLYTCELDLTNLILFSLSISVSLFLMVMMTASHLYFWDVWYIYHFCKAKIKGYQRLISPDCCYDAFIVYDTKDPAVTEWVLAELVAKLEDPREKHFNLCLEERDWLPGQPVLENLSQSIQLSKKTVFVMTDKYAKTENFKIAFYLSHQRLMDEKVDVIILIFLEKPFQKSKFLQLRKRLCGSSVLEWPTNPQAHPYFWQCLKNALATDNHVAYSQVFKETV
As to the kind of experiment: Agonist activity at TLR7 (unknown origin) expressed in human U2OS cells assessed as induction of NF-kappaB driven TNFalpha production by luciferase reporter assay. The format is cell-based. (Reporter assays use an easily measured gene product as a stand-in for the process of interest.)

Assay [3] concerns the target T2, Toll-like receptor 7. As to the kind of experiment: Agonist activity at TLR7 in human whole blood assessed as induction of IFN-gamma production after 20 hrs by electrochemiluminescence assay. The format is tissue-based.
Assay [4] has as its target T2, Toll-like receptor 7. As to the kind of experiment: Agonist activity at TLR7 in human whole blood assessed as induction of TNFalpha production after 20 hrs by electrochemiluminescence assay. It counts as tissue-based.
Assay [5] concerns the target T2, Toll-like receptor 7. As to the kind of experiment: Agonist activity at TLR7 in human whole blood assessed as induction of IL-10 production after 20 hrs by electrochemiluminescence assay. The format is tissue-based.
Assay [6] concerns the target T2, Toll-like receptor 7. As to the kind of experiment: Agonist activity at TLR7 in human PBMC assessed as IFN-alpha production after 24 hrs by electrochemiluminescence assay. It counts as cell-based.
The subject of a further assay is PBMC. As to the kind of experiment: Immunomodulatory activity in human PBMC assessed as reduction in timothy grass induced IL-5 level after 6 days. The following applies: dose 0.01-10000 nM, time 6.0 day. The format is functional, cell-based.
A further assay has as its system Cynomolgus monkey. As to the kind of experiment: Increase in TNF-alpha level in cynomolgus monkey serum at 3000 ng/kg, administered intranasally after 6 hrs. The format is functional, organism-based. To be noted: Macaca fascicularis.

In general, EC50 refers to the concentration at which the effect is half-maximal. For the compound `CCC[C@H](C)Oc1nc(N)c2[nH]c(=O)n(CCCCCN3CCCCC3)c2n1` [GSK-2245035], the fold change (FC) in assay [1] came out at 124. The EC50 was 1260 nM at Toll-like receptor 7 [2]; 1260 nM on Toll-like receptor 7 [3]; 10000 nM at Toll-like receptor 7 [4]; 251 nM at Toll-like receptor 7 [5]; 7.94 nM on Toll-like receptor 7 [6]. Besides, in the assay on PBMC, the Activity entry is “Dose-Dependent Effect”. The outcome in the assay on Cynomolgus monkey was inactive.
